From ChEMBL document CHEMBL3885861, “Open TG-GATES”

Species: Rattus norvegicus
Assay: Open TG-GATES - Regimen: Daily Repeat
Type: toxicity, organism-based, Sprague-Dawley
Set-up: regimen Daily Repeat, gender Male, age 6 weeks
Conditions: in vivo, po, 100 mg/kg, route gavage, dose level High; for KIDNEY_L / KIDNEY_R / KIDNEY_TOTAL: tissue Kidney; for AST / CRE / GLC / IP / K / LDH / RALB / TBIL / TC / TP / gamma-GTP: tissue Plasma

With `CN(C)CCCN1c2ccccc2CCc2ccccc21` [IMIPRAMINE] as the compound, how does the TERMINAL_BW (72 h, time 3 day) read?
Its TERMINAL_BW is 197.8 g.

And the APTT (72 h, tissue Blood, time 3 day)?
Its APTT is 15.5 s.

What about the Bas (72 h, tissue Blood, time 3 day) of the same compound?
The Bas was 0%.

What about the Eos (72 h, tissue Blood, time 3 day) of the same compound?
Its Eos is 1%.

What about the Fbg (72 h, tissue Blood, time 3 day) of the same compound?
The Fbg was 334.4 mg/dL.

And the Ht (72 h, tissue Blood, time 3 day)?
Its Ht is 45.9%.

And the Lym (72 h, tissue Blood, time 3 day)?
The Lym was 74.8%.

And the MCHC (72 h, tissue Blood, time 3 day)?
Its MCHC is 33%.

What about the MCV (72 h, tissue Blood, time 3 day) of the same compound?
The MCV was 62.6 fL.

And the Mono (72 h, tissue Blood, time 3 day)?
The Mono was 2.4%.

And the PT (72 h, tissue Blood, time 3 day)?
The PT was 16.5 s.

What about the Plat (72 h, tissue Blood, time 3 day) of the same compound?
Its Plat is 126.7 x10_4/uL.

What about the RBC (72 h, tissue Blood, time 3 day) of the same compound?
Its RBC is 733.8 x10_4/ul.

What about the Ret (72 h, tissue Blood, time 3 day) of the same compound?
Its Ret is 2.8%.

What about the KIDNEY_L (72 h, time 3 day) of the same compound?
The KIDNEY_L was 0.9 g.

And the KIDNEY_R (72 h, time 3 day)?
Its KIDNEY_R is 0.9 g.

And the KIDNEY_TOTAL (72 h, time 3 day)?
The KIDNEY_TOTAL was 1.8 g.

And the AST (72 h, time 3 day)?
Its AST is 57.2 IU/L.

What about the CRE (72 h, time 3 day) of the same compound?
The CRE was 0.2 mg/dL.

And the GLC (72 h, time 3 day)?
The GLC was 163.8 mg/dL.

What about the IP (72 h, time 3 day) of the same compound?
Its IP is 7.8 mg/dL.

And the K (72 h, time 3 day)?
Its K is 4.3 meq/L.

What about the LDH (72 h, time 3 day) of the same compound?
Its LDH is 57.8 IU/L.

And the RALB (72 h, time 3 day)?
Its RALB is 2.5 g/dL.

And the TBIL (72 h, time 3 day)?
Its TBIL is 0.05 mg/dL.

What about the TC (72 h, time 3 day) of the same compound?
The TC was 93.8 mg/dL.

What about the TP (72 h, time 3 day) of the same compound?
The TP was 5.7 g/dL.

And the gamma-GTP (72 h, time 3 day)?
The gamma-GTP was 0.8 IU/L.

What about the TERMINAL_BW ([…], time 7 day) of the same compound?
The TERMINAL_BW was 201.5 g.

And the TERMINAL_BW ([…], time 14 day)?
Its TERMINAL_BW is 221.4 g.

What about the TERMINAL_BW ([…], time 28 day) of the same compound?
The TERMINAL_BW was 293.5 g.

And the APTT ([…], tissue Blood, time 7 day)?
Its APTT is 15.9 s.

What about the Bas ([…], tissue Blood, time 7 day) of the same compound?
Its Bas is 0%.

And the Eos ([…], tissue Blood, time 7 day)?
Its Eos is 1%.

What about the Fbg ([…], tissue Blood, time 7 day) of the same compound?
Its Fbg is 347.8 mg/dL.

And the Ht ([…], tissue Blood, time 7 day)?
The Ht was 45.6%.

And the Lym ([…], tissue Blood, time 7 day)?
Its Lym is 82.8%.

And the MCHC ([…], tissue Blood, time 7 day)?
Its MCHC is 33.3%.

What about the MCV ([…], tissue Blood, time 7 day) of the same compound?
The MCV was 59.9 fL.

And the Mono ([…], tissue Blood, time 7 day)?
The Mono was 1.8%.

What about the PT ([…], tissue Blood, time 7 day) of the same compound?
The PT was 16.9 s.

And the Plat ([…], tissue Blood, time 7 day)?
Its Plat is 109.5 x10_4/uL.

And the RBC ([…], tissue Blood, time 7 day)?
Its RBC is 762.2 x10_4/ul.

What about the Ret ([…], tissue Blood, time 7 day) of the same compound?
The Ret was 1.4%.

What about the APTT ([…], tissue Blood, time 14 day) of the same compound?
Its APTT is 18 s.

And the Bas ([…], tissue Blood, time 14 day)?
The Bas was 0.4%.

And the Eos ([…], tissue Blood, time 14 day)?
Its Eos is 1.4%.

What about the Fbg ([…], tissue Blood, time 14 day) of the same compound?
Its Fbg is 329.4 mg/dL.

And the Ht ([…], tissue Blood, time 14 day)?
The Ht was 46.8%.

And the Lym ([…], tissue Blood, time 14 day)?
The Lym was 69.8%.

And the MCHC ([…], tissue Blood, time 14 day)?
Its MCHC is 33.5%.

What about the MCV ([…], tissue Blood, time 14 day) of the same compound?
Its MCV is 60.2 fL.

What about the Mono ([…], tissue Blood, time 14 day) of the same compound?
The Mono was 4.4%.

What about the PT ([…], tissue Blood, time 14 day) of the same compound?
The PT was 17.3 s.

And the Plat ([…], tissue Blood, time 14 day)?
The Plat was 98.5 x10_4/uL.

What about the RBC ([…], tissue Blood, time 14 day) of the same compound?
Its RBC is 777.6 x10_4/ul.

What about the Ret ([…], tissue Blood, time 14 day) of the same compound?
Its Ret is 1.7%.

What about the APTT ([…], tissue Blood, time 28 day) of the same compound?
The APTT was 16.4 s.

What about the Bas ([…], tissue Blood, time 28 day) of the same compound?
Its Bas is 0.2%.

And the Eos ([…], tissue Blood, time 28 day)?
The Eos was 1.2%.

And the Fbg ([…], tissue Blood, time 28 day)?
The Fbg was 377.5 mg/dL.

And the Ht ([…], tissue Blood, time 28 day)?
Its Ht is 46.7%.

What about the Lym ([…], tissue Blood, time 28 day) of the same compound?
The Lym was 70%.

What about the MCHC ([…], tissue Blood, time 28 day) of the same compound?
Its MCHC is 33.8%.

What about the MCV ([…], tissue Blood, time 28 day) of the same compound?
The MCV was 55.4 fL.

And the Mono ([…], tissue Blood, time 28 day)?
Its Mono is 3%.

What about the Neu ([…], tissue Blood, time 28 day) of the same compound?
Its Neu is 25.2%.

What about the PT ([…], tissue Blood, time 28 day) of the same compound?
Its PT is 16 s.

What about the Plat ([…], tissue Blood, time 28 day) of the same compound?
Its Plat is 93.4 x10_4/uL.

What about the RBC ([…], tissue Blood, time 28 day) of the same compound?
The RBC was 842.5 x10_4/ul.

And the Ret ([…], tissue Blood, time 28 day)?
The Ret was 2.6%.

What about the KIDNEY_L ([…], time 7 day) of the same compound?
The KIDNEY_L was 1 g.

And the KIDNEY_R ([…], time 7 day)?
Its KIDNEY_R is 0.9 g.

What about the KIDNEY_TOTAL ([…], time 7 day) of the same compound?
The KIDNEY_TOTAL was 1.9 g.

What about the KIDNEY_L ([…], time 14 day) of the same compound?
Its KIDNEY_L is 1 g.

What about the KIDNEY_R ([…], time 14 day) of the same compound?
Its KIDNEY_R is 0.9 g.

And the KIDNEY_TOTAL ([…], time 14 day)?
The KIDNEY_TOTAL was 1.9 g.

And the KIDNEY_L ([…], time 28 day)?
Its KIDNEY_L is 1.2 g.

And the KIDNEY_R ([…], time 28 day)?
Its KIDNEY_R is 1.2 g.

And the KIDNEY_TOTAL ([…], time 28 day)?
Its KIDNEY_TOTAL is 2.4 g.

What about the AST ([…], time 7 day) of the same compound?
The AST was 51.6 IU/L.

What about the CRE ([…], time 7 day) of the same compound?
The CRE was 0.2 mg/dL.

And the GLC ([…], time 7 day)?
Its GLC is 162.6 mg/dL.

What about the IP ([…], time 7 day) of the same compound?
Its IP is 7.2 mg/dL.

And the K ([…], time 7 day)?
The K was 4.1 meq/L.

And the LDH ([…], time 7 day)?
Its LDH is 79 IU/L.

And the RALB ([…], time 7 day)?
Its RALB is 2.5 g/dL.

And the TBIL ([…], time 7 day)?
The TBIL was 0.048 mg/dL.

And the TC ([…], time 7 day)?
Its TC is 102.6 mg/dL.

What about the TP ([…], time 7 day) of the same compound?
The TP was 5.6 g/dL.

What about the gamma-GTP ([…], time 7 day) of the same compound?
Its gamma-GTP is 0.2 IU/L.

And the AST ([…], time 14 day)?
Its AST is 75.8 IU/L.

And the CRE ([…], time 14 day)?
Its CRE is 0.2 mg/dL.

And the GLC ([…], time 14 day)?
The GLC was 155.8 mg/dL.

What about the IP ([…], time 14 day) of the same compound?
The IP was 6.9 mg/dL.

And the K ([…], time 14 day)?
The K was 4.2 meq/L.

And the LDH ([…], time 14 day)?
The LDH was 73.6 IU/L.

What about the RALB ([…], time 14 day) of the same compound?
Its RALB is 2.6 g/dL.

And the TBIL ([…], time 14 day)?
The TBIL was 0.04 mg/dL.

What about the TC ([…], time 14 day) of the same compound?
The TC was 74.6 mg/dL.

What about the TP ([…], time 14 day) of the same compound?
The TP was 5.8 g/dL.

And the gamma-GTP ([…], time 14 day)?
The gamma-GTP was 1.2 IU/L.

What about the AST ([…], time 28 day) of the same compound?
The AST was 56 IU/L.

And the CRE ([…], time 28 day)?
The CRE was 0.2 mg/dL.

What about the GLC ([…], time 28 day) of the same compound?
The GLC was 148.5 mg/dL.

What about the IP ([…], time 28 day) of the same compound?
The IP was 7 mg/dL.

And the K ([…], time 28 day)?
Its K is 4.3 meq/L.

And the LDH ([…], time 28 day)?
The LDH was 40.5 IU/L.

And the RALB ([…], time 28 day)?
Its RALB is 2.7 g/dL.

What about the TBIL ([…], time 28 day) of the same compound?
The TBIL was 0.0425 mg/dL.

And the TC ([…], time 28 day)?
The TC was 91.8 mg/dL.

What about the TP ([…], time 28 day) of the same compound?
The TP was 6.2 g/dL.

What about the gamma-GTP ([…], time 28 day) of the same compound?
The gamma-GTP was 0.5 IU/L.
